Measurements published in publication PMC12446476 (Nature Communications, 2025).
Like-named read-outs stand apart in the source and are kept apart here.

Test system: non-gonococcal Neisseria
Assay: MIC determination for non-gonococcal Neisseria, agar dilution
Assay type: cell-based, Neisseria species
Text: The 2024 WHO N. gonorrhoeae reference strains were used for quality control. Only whole MIC doubling dilutions are reported. Clinical breakpoints or the epidemiological cutoff (ECOFF, to indicate azithromycin resistance) from EUCAST (v14.0, https://www.eucast.org/clinical_breakpoints) were used to classify isolates as antimicrobial susceptible or resistant. […] Two times the standard inoculum defined by CLSI was used to establish consistent growth in untreated control samples for some strains. In vitro time-kill assays were performed according to CLSI guidelines[65] using Columbia Broth (BD Difco) supplemented with 1% IsoVitaleX Enrichment (BD). Viable bacterial counts were generated by plating 10-fold serially diluted samples on GC agar plates containing 1% IsoVitaleX Enrichment (BD).

Measured: MIC

Cc1c(CN(C)C(=O)/C=C/c2cnc3c(c2)N[C@H](C)[C@H](O)C(=O)N3)oc2ccccc12 [Debio 1453]
0.064 µg/mL: Neisseria polysaccharea 2, Consensus, read-out: Minimum inhibitory concentration | Neisseria polysaccharea 2, Replicate 1, read-out: Minimum inhibitory concentration | Neisseria polysaccharea 2, Replicate 2, read-out: Minimum inhibitory concentration | Neisseria polysaccharea 2, Replicate 3, read-out: Minimum inhibitory concentration | Neisseria subflava 4, Consensus, read-out: Minimum inhibitory concentration | Neisseria subflava 4, Replicate 1, read-out: Minimum inhibitory concentration | Neisseria subflava 4, Replicate 2, read-out: Minimum inhibitory concentration | Neisseria subflava 4, Replicate 3, read-out: Minimum inhibitory concentration
0.5 µg/mL: Neisseria sicca 1, Consensus, read-out: Minimum inhibitory concentration | Neisseria sicca 1, Replicate 2, read-out: Minimum inhibitory concentration | Neisseria sicca 1, Replicate 3, read-out: Minimum inhibitory concentration | Neisseria sicca 2, Replicate 3, read-out: Minimum inhibitory concentration | Neisseria sicca 4, Replicate 3, read-out: Minimum inhibitory concentration | Neisseria sicca 8, Replicate 1, read-out: Minimum inhibitory concentration | Neisseria subflava 5, Consensus, read-out: Minimum inhibitory concentration | Neisseria subflava 5, Replicate 1, read-out: Minimum inhibitory concentration | Neisseria subflava 5, Replicate 2, read-out: Minimum inhibitory concentration | Neisseria subflava 5, Replicate 3, read-out: Minimum inhibitory concentration
0.25 µg/mL: Neisseria sicca 1, Replicate 1, read-out: Minimum inhibitory concentration | Neisseria sicca 2, Consensus, read-out: Minimum inhibitory concentration | Neisseria sicca 2, Replicate 1, read-out: Minimum inhibitory concentration | Neisseria sicca 2, Replicate 2, read-out: Minimum inhibitory concentration | Neisseria sicca 9, Consensus, read-out: Minimum inhibitory concentration | Neisseria sicca 9, Replicate 1, read-out: Minimum inhibitory concentration | Neisseria sicca 9, Replicate 2, read-out: Minimum inhibitory concentration | Neisseria sicca 9, Replicate 3, read-out: Minimum inhibitory concentration | Neisseria subflava 2, Consensus, read-out: Minimum inhibitory concentration | Neisseria subflava 2, Replicate 1, read-out: Minimum inhibitory concentration | Neisseria subflava 2, Replicate 2, read-out: Minimum inhibitory concentration | Neisseria subflava 2, Replicate 3, read-out: Minimum inhibitory concentration | Neisseria subflava 3, Consensus, read-out: Minimum inhibitory concentration | Neisseria subflava 3, Replicate 1, read-out: Minimum inhibitory concentration | Neisseria subflava 3, Replicate 2, read-out: Minimum inhibitory concentration | po, Neisseria oralis 1, Consensus, read-out: Minimum inhibitory concentration | po, Neisseria oralis 1, Replicate 1, read-out: Minimum inhibitory concentration | po, Neisseria oralis 1, Replicate 2, read-out: Minimum inhibitory concentration | po, Neisseria oralis 1, Replicate 3, read-out: Minimum inhibitory concentration
0.016 µg/mL: Neisseria sicca 3, Replicate 2, read-out: Minimum inhibitory concentration | Neisseria sicca 5, Consensus, read-out: Minimum inhibitory concentration | Neisseria sicca 5, Replicate 2, read-out: Minimum inhibitory concentration | Neisseria sicca 5, Replicate 3, read-out: Minimum inhibitory concentration
1 µg/mL: Neisseria perflava 25, Replicate 3, read-out: Minimum inhibitory concentration | Neisseria sicca 6, Consensus, read-out: Minimum inhibitory concentration | Neisseria sicca 6, Replicate 1, read-out: Minimum inhibitory concentration | Neisseria sicca 6, Replicate 2, read-out: Minimum inhibitory concentration | Neisseria sicca 6, Replicate 3, read-out: Minimum inhibitory concentration | Neisseria sicca 8, Consensus, read-out: Minimum inhibitory concentration | Neisseria sicca 8, Replicate 2, read-out: Minimum inhibitory concentration | Neisseria sicca 8, Replicate 3, read-out: Minimum inhibitory concentration
0.008 µg/mL: Neisseria sicca 3, Consensus, read-out: Minimum inhibitory concentration | Neisseria sicca 3, Replicate 1, read-out: Minimum inhibitory concentration | Neisseria sicca 3, Replicate 3, read-out: Minimum inhibitory concentration | Neisseria sicca 5, Replicate 1, read-out: Minimum inhibitory concentration | Neisseria sicca 7, Consensus, read-out: Minimum inhibitory concentration | Neisseria sicca 7, Replicate 1, read-out: Minimum inhibitory concentration | Neisseria sicca 7, Replicate 2, read-out: Minimum inhibitory concentration | Neisseria sicca 7, Replicate 3, read-out: Minimum inhibitory concentration
0.125 µg/mL: read-out: Minimum inhibitory concentration, Neisseria cinerea 4, Consensus | read-out: Minimum inhibitory concentration, Neisseria cinerea 4, Replicate 1 | read-out: Minimum inhibitory concentration, Neisseria cinerea 4, Replicate 2 | read-out: Minimum inhibitory concentration, Neisseria cinerea 4, Replicate 3 | read-out: Minimum inhibitory concentration, Neisseria cinerea 5, Consensus | read-out: Minimum inhibitory concentration, Neisseria cinerea 5, Replicate 1 | read-out: Minimum inhibitory concentration, Neisseria cinerea 5, Replicate 2 | read-out: Minimum inhibitory concentration, Neisseria cinerea 5, Replicate 3 | read-out: Minimum inhibitory concentration, Neisseria cinerea 8, Consensus | read-out: Minimum inhibitory concentration, Neisseria cinerea 8, Replicate 2 | read-out: Minimum inhibitory concentration, Neisseria cinerea 8, Replicate 3 | read-out: Minimum inhibitory concentration, Neisseria elongata 1, Consensus | read-out: Minimum inhibitory concentration, Neisseria elongata 1, Replicate 1 | read-out: Minimum inhibitory concentration, Neisseria elongata 1, Replicate 2 | read-out: Minimum inhibitory concentration, Neisseria elongata 1, Replicate 3 | read-out: Minimum inhibitory concentration, Neisseria flava 1, Consensus | read-out: Minimum inhibitory concentration, Neisseria flava 1, Replicate 1 | read-out: Minimum inhibitory concentration, Neisseria flava 1, Replicate 3 | read-out: Minimum inhibitory concentration, Neisseria flavescens 2, Consensus | read-out: Minimum inhibitory concentration, Neisseria flavescens 2, Replicate 1 | read-out: Minimum inhibitory concentration, Neisseria flavescens 2, Replicate 3 | read-out: Minimum inhibitory concentration, Neisseria flavescens 8, Consensus | read-out: Minimum inhibitory concentration, Neisseria flavescens 8, Replicate 2 | read-out: Minimum inhibitory concentration, Neisseria flavescens 8, Replicate 3 | read-out: Minimum inhibitory concentration, Neisseria flavescens 10, Consensus | read-out: Minimum inhibitory concentration, Neisseria flavescens 10, Replicate 1 | read-out: Minimum inhibitory concentration, Neisseria flavescens 10, Replicate 3 | read-out: Minimum inhibitory concentration, Neisseria flavescens 12, Replicate 3 | read-out: Minimum inhibitory concentration, Neisseria mucosa 2, Consensus | read-out: Minimum inhibitory concentration, Neisseria mucosa 2, Replicate 2 | read-out: Minimum inhibitory concentration, Neisseria mucosa 2, Replicate 3 | read-out: Minimum inhibitory concentration, Neisseria perflava 5, Consensus | read-out: Minimum inhibitory concentration, Neisseria perflava 5, Replicate 1 | read-out: Minimum inhibitory concentration, Neisseria perflava 5, Replicate 2 | read-out: Minimum inhibitory concentration, Neisseria perflava 5, Replicate 3 | read-out: Minimum inhibitory concentration, Neisseria perflava 18, Consensus | read-out: Minimum inhibitory concentration, Neisseria perflava 18, Replicate 1 | read-out: Minimum inhibitory concentration, Neisseria perflava 18, Replicate 3 | read-out: Minimum inhibitory concentration, Neisseria perflava 24, Consensus | read-out: Minimum inhibitory concentration, Neisseria perflava 24, Replicate 1 | read-out: Minimum inhibitory concentration, Neisseria perflava 24, Replicate 2 | read-out: Minimum inhibitory concentration, Neisseria perflava 24, Replicate 3 | read-out: Minimum inhibitory concentration, Neisseria polysaccharea 1, Consensus | read-out: Minimum inhibitory concentration, Neisseria polysaccharea 1, Replicate 1 | read-out: Minimum inhibitory concentration, Neisseria polysaccharea 1, Replicate 2 | read-out: Minimum inhibitory concentration, Neisseria polysaccharea 1, Replicate 3 | read-out: Minimum inhibitory concentration, Neisseria sicca 4, Consensus | read-out: Minimum inhibitory concentration, Neisseria sicca 4, Replicate 1 | read-out: Minimum inhibitory concentration, Neisseria sicca 4, Replicate 2 | read-out: Minimum inhibitory concentration, Neisseria subflava 3, Replicate 3
2 µg/mL: Neisseria subflava 1, Consensus, read-out: Minimum inhibitory concentration | Neisseria subflava 1, Replicate 1, read-out: Minimum inhibitory concentration | Neisseria subflava 1, Replicate 2, read-out: Minimum inhibitory concentration | Neisseria subflava 1, Replicate 3, read-out: Minimum inhibitory concentration
